Results as given in patent publication US12590951B2, “Culture medium and culture method for primary cells of intestinal cancer” (PRECEDO PHARMACEUTICALS CO., LTD, priority 2021, dated 2026).
Like-named read-outs stand apart in the source and are kept apart here.

Legend:
[1] = test system: primary cells of intestinal cancer; assay: Effect of single additives in Basic Medium on proliferation of primary cells of intestinal cancer (cell count); assay type: cell-based, human; set-up: key: +: compared with the Basic Medium, the medium added with the additive(s) has the effect of promoting the proliferation of primary cells of intestinal cancer isolated from intestinal cancer tissue in at least two cases; −: the medium added with the additive(s) has the effect of inhibiting the proliferation of primary cells of intestinal cancer isolated from intestinal cancer tissue in at least one case; ∘: the medium added with the additive(s) has no significant effect on the proliferation of primary cells of intestinal cancer isolated from intestinal cancer tissue in at least two cases
Procedure: First, Basic Medium was prepared. The formulation of Basic Medium is: DMEM/F12 medium (purchased from Corning)+5 μM Y27632 (purchased from MCE)+5% (v/v) fetal bovine serum (purchased from Excell Bio)+100 μg/mL Primocin (purchased from InvivoGen, 0.2% (v/v), the concentration of commercial product is 50 mg/ml).
Different types of additives (see Table 1) were added to the Basic Medium to prepare the culture mediums for primary cells of intestinal cancer containing different components.
The culture mediums of different components as shown in Table 1 were added into a 48-well plate at a volume of 1 mL/well. Primary cells of intestinal cancer isolated from two cases of intestinal cancer tissues (numbered OE0042 and OE(E)003) according to the above step (2) were inoculated into the 48-well culture plate at a cell density of 3×10^4 cells/well, and were cultured at 37° C., under 5% CO2 concentration. After culturing for 7-10 days, when the cells grew to 85%, the culture medium was discarded, and 100 μL/well of 0.05% trypsin (purchased from Gibco) was used to rinse the cells once. After the trypsin was removed, 200 μL of 0.05% trypsin was added to each well. The plate was then placed in a 37° C., 5% CO2 incubator for 10 minutes, and the cells were observed under a microscope (CNOPTEC, BDS400), showing that the cells had completely digested. 300 μL of DMEM/F12 medium containing 10% serum (Excell Bio, FND500) was added to stop the digestion. 20 μL of the resultant was added into a cell counting plate (Countstar, specification: 50 pieces/box), and the total number of cells was counted with a cell counter (Countstar, IC1000). Specifically, Basic Medium without any additives was used as an experimental control, and the experimental results are shown in Table 1.

[2] = test system: primary cells of intestinal cancer; assay: Effect of different concentrations of factors in CA-1 medium on proliferation (ratio of cell number to Blank Control); assay type: cell-based, human
[3] = additive at the final concentration in Basic Medium, samples OE0042 and OE(E)003, 7-10 days, compared with Basic Medium
[4] = according to proliferation ratio vs Blank Control, FIGS. 2A-2J

Compound: Cc1cccc(-c2nn(C(=S)Nc3ccccc3)cc2-c2ccnc3ccccc23)n1 [A8301, reference compound]
- Level of promoting cell proliferation [1, 3]: −
- amount in culture medium, more preferably [2, 4]: 200 nM

Compound: Oc1ccc(-c2nc(-c3ccncc3)c(-c3ccc(F)cc3)[nH]2)cc1 [SB202190, reference compound]
- Level of promoting cell proliferation [1, 3]: ∘

Compound: C[C@@H](N)[C@H]1CC[C@H](C(=O)Nc2ccncc2)CC1 [Y-27632, reference compound]
- amount in culture medium, even more preferably [2, 4]: 5 µM
- amount in culture medium, preferably [2, 4]: 2.5 to 40 µM

Compound: NC(=O)CC[C@H](N)C(=O)O [glutamine, reference compound]
- Level of promoting cell proliferation [1, 3]: −

Compound: C[C@]12CCC(=O)C=C1CC[C@@H]1[C@@H]2[C@@H](O)C[C@@]2(C)[C@H]1CC[C@]2(O)C(=O)CO [hydrocortisone, reference compound]
- Level of promoting cell proliferation [1, 3]: ∘

Compound: NC(=O)c1cccnc1 [nicotinamide, reference compound]
- Level of promoting cell proliferation [1, 3]: +
- amount in the culture medium, even more preferably [2, 4]: 4 mM
- amount in the culture medium, more preferably [2, 4]: 4 to 8 mM
- amount in the culture medium, preferably [2, 4]: 2 to 8 mM

Compound: CCCCC[C@H](O)/C=C/[C@H]1[C@H](O)CC(=O)[C@@H]1C/C=C\CCCC(=O)O [prostaglandin E2, reference compound]
- Level of promoting cell proliferation [1, 3]: −

Compound: TGF-β1: medium additive from R&D
- Level of promoting cell proliferation [1, 3]: −

Compound: basic fibroblast growth factor: medium additive, growth factor from R&D
- Level of promoting cell proliferation [1, 3]: −

Compound: cholera toxin
- Level of promoting cell proliferation [1]: +
- amount in culture medium, even more preferably [2]: 5 ng/mL

Compound: epidermal growth factor: medium additive, growth factor from R&D (NSDSECPLSHDGYCLHDGVCMYIEALDKYACNCVVGYIGERCQYRDLKWWELR; Epidermal growth factor; UniProt P01133 971-1023, looked up)
- Level of promoting cell proliferation [1, 3]: ∘

Compound: hepatocyte growth factor: medium additive, growth factor from Peprotech
- Level of promoting cell proliferation [1, 3]: ∘

Compound: insulin-like growth factor-1: medium additive, growth factor from R&D
- Level of promoting cell proliferation [1, 3]: +
- amount in culture medium, more preferably [2, 4]: 45 ng/mL
- amount in culture medium, preferably [2, 4]: 5 to 405 ng/mL

Compound: insulin: medium additive from Peprotech
- Level of promoting cell proliferation [1, 3]: +
- amount in culture medium, even more preferably [2, 4]: 2000 ng/mL
- amount in culture medium, more preferably [2, 4]: 1000 to 2000 ng/mL
- amount in culture medium, preferably [2, 4]: 500 to 4000 ng/mL
